Assay results from patent US7906484B2, “Complex for transferring an anionic substance into a cell” (Alnylam Pharmaceuticals, Inc., priority 2006, dated 2011).
No end group written: not given here.

Legend:
cell viability = experiment: CytoTox ONE cell viability assay; format: cell-based; details: 2.5 μM peptide
Protocol: Delivery of siRNAs was tested in 7 different cell lines we obtained from the American Type Culture Collection, ATCC, via LCG Promochem GmbH, Wesel, Germany (PC12, ATTC# CRL-1721; HCT116, ATCC# CCL-247; C33A, ATCC# HTB-31; H441, ATCC# HTB-174; NMuLi, ATCC# CRL-1638; HepG2, ATCC# HB-8065; HeLa S3, ATCC# CCL2.2) and in the cell line KB-BCL2-GFP, as described in co-pending U.S. Ser. No. 10/941,663. Target mRNA quantification was performed using the QuantiGene™ bDNA-kit from Panomics, Inc., Fremont, USA, according to the manufacturers instructions, and essentially as described below for H441 cells. Genes constitutively expressed in the various cell lines were chosen as targets and results normalized to GAPDH expression. siRNA concentration was 250 nM, the concentration of the peptide was chosen as given by the molar ratio peptide/siRNA shown in Table 1. Cytotoxicity of peptides was evaluated employing the CytoTox-ONE™ assay (Promega GmbH, Mannheim, Germany).
Potential cytotoxic effects as mediator of inhibition were ruled out by determining cell viability in the presence of 2.5 μM of ppTG20, AP-0, AP-1, AP-27, AP-30, AP32 and AP-34 using the CytoTox ONE™ assay (Promega GmbH, Mannheim, Germany).

[1] = test system: E6AP mRNA in HCT116 cells; experiment: siRNA AD-8724 delivery into HCT116 cells, inhibition of E6AP mRNA expression by bDNA assay; format: cell-based, human
Protocol: All further experiments were carried out using HCT116 cells and inhibition of E6AP expression as readout.
HCT116-cells were obtained from the American Type Culture Collection (ATCC# CCL-247). They were cultured in McCoy's 5A medium (Biochrom AG, Berlin, Germany, Cat.# F1015) containing 10% fetal calf serum (FCS; Biochrom AG, Berlin, Germany, Cat.# S0115) and 2 mM L-Glutamin (Biochrom AG, Berlin, Germany, Cat.#: K0283) (standard growth medium). For incubation with peptide/siRNA, complexes, the medium was replaced by serum-free McCoy's 5A medium containing 2 mM L-Glutamin (serum free medium). After incubation with complexes for 4 h, McCoy's 5A medium containing 30% fetal calf serum and 2 mM L-Glutamin (triple FCS medium) was added to restore an overall 10% FCS in the medium.
The E6AP-specific siRNA denoted AD-8724 herein was used, having the following sequences: antisense strand: 5′-ucacauuccacguuaggugTsT-3′ (SEQ ID NO:51), sense strand 5′-caccuaacguggaaugugaTsT-3′; (SEQ ID NO:52; lower case letters: ribonucleotides; s: phosphorothioate backbone linkage). As a negative control, an siRNA specific for eGFP, denoted AD-5107 herein, was used, having the following sequences: antisense strand: 5′-aagucgugcugcuucauguggOMesuOMesc-3′ (SEQ ID NO:19), sense strand 5′-[…]-3′ (SEQ ID NO:18; lower case letters: ribonucleotides; subscript OMe: 2′-O-methyl-ribonucleotide; s: phosphorothioate backbone linkage). In addition to the non-specific control siRNA AD-5107, mock transfected cells treated with standard growth medium only were used as negative controls. As a positive control, AD-8724 was transfected into the cells using Lipofectamine2000™ (Invitrogen, Karlsruhe, Germany, Cat. No. 11668-019). As a further control, AD-5107 was transfected into cells using Lipofectamine2000™. All assays were performed in quadruplicates.
SiRNA/peptide complexes were prepared by mixing a solution of the siRNA in deionized water with a solution of the peptide in deionized water at the appropriate concentrations to give the desired ratio of siRNA/peptide at the desired concentration of the complex. The mixture was incubated at room temperature for 30 min and kept at 4° C. until use, and used within 24 h.
For transfections with siRNA/peptide complexes, 1.5×10^5 HCT116-cells per well in 150 μl standard growth medium were seeded into polystyrene 96 well plates and grown for 24 h at 37° C. in an atmosphere containing 5% CO2. The medium was removed by aspiration, and 90 μl serum-free medium and 10 μl of siRNA/peptide complex solution were added. Cells were incubated for 4 h at 37° C./5% CO2, 50 μl triple FCS medium were added, and the cells incubated for another 20 h under identical conditions. Subsequently, E6AP mRNA content was determined as described below.
For Lipofectamine2000™ transfections, 0.5 μl Lipofectamine2000™ were mixed with 12 μl OptiMem™ (Invitrogen, Karlsruhe, Germany, Cat. No. 11058-021) and incubated for 15 min. 1 μl of a 5 μM solution of the respective siRNA in PBS (Biochrom AG, Berlin, Germany, Cat-No: L182-05) were added to 11.5 μl OptiMeM™, mixed with the Lipofectamine2000™/OptiMem™ solution, and incubated for further 15 min. 1.5×10^5 HCT116-cells per well in 150 μl standard growth medium were grown for 24 h as described above, the growth medium removed from the cells by aspiration, and 75 μl fresh standard growth medium and the 25 μl of the siRNA/Lipofectamine2000™ mix were added to the well, to give a final siRNA concentration of 50 nM. The cells were incubated for 24 h at 37° C./5% CO2 and E6AP mRNA concentration determined.
The QuantiGene™ bDNA-kit from Panomics, Inc., Fremont, USA, was used according to manufacturer's instructions. Briefly, cells were lysed by adding 50 μl of Lysis Mixture (from QuantiGene bDNA-kit) to each well and incubation at 53° C. for 1 h. […]

eGFP-mRNA = experiment: Influence of peptide/siRNA ratio on siRNA activity in HCT116 cells; format: cell-based; details: 250 nM siRNA
Protocol: The optimal ratio of (peptide):(anionic substance) for complex formation, was determined in section 3 above to lie in the range of 8:1 to 13:1 by titrating a fixed concentration of the anionic substance with increasing amounts of the peptide, and monitoring complex formation by electrophoresis of the mixture. To further validate and possibly narrow down the optimum ratio of peptide/anionic substance, an assay with a functional readout was performed. HCT116 cells were incubated with siRNA complexes as described above at concentrations such that the amount of siRNA in the incubation mixture corresponds to a 250 nM concentration of the siRNA, and the peptide/siRNA ratio was 8:1, 10:1, 12:1, or 14:1.

[2] = siRNA AD-8724 250 nM, molar peptide/siRNA ratio 12.5:1
[3] = AD-8724, siRNA/peptide conc. 25 nM/250 nM
[4] = AD-8724, siRNA/peptide conc. 250 nM/2.5 μM
[5] = AD-8724, siRNA/peptide conc. 1 μM/10 μM

| Sequence | cell viability (cell viability) | remaining E6AP mRNA (in % of mock) [1, 2] | Remaining eGFP-mRNA in % of mock-transfected controls (eGFP-mRNA; peptide/siRNA ratio 8:1) | Remaining eGFP-mRNA in % of mock-transfected controls (eGFP-mRNA; peptide/siRNA ratio 10:1) | Remaining eGFP-mRNA in % of mock-transfected controls (eGFP-mRNA; peptide/siRNA ratio 12:1) | Remaining eGFP-mRNA in % of mock-transfected controls (eGFP-mRNA; peptide/siRNA ratio 14:1) | also measured |
| --- | --- | --- | --- | --- | --- | --- | --- |
| HHHHHRLFRALLRLLRSLWRLLLRA [AP-30] | None of these peptides led to a significant alteration of cell viability |  |  |  |  |  |  |
| HHHHHRLFRALLRLLRSLWRLLLRAHHHHH [AP-32] | None of these peptides led to a significant alteration of cell viability |  |  |  |  |  |  |
| HLFRALHRLLRHLWRLLHRA [AP-12] |  | 94 ± 31% |  |  |  |  |  |
| HLFRALLRLLRHLWRLLHRA [AP-11] |  | 62 ± 15% | 27 ± 5% | 30 ± 8% | 30 ± 5% | 24 ± 5% |  |
| HLFRALLRLLRHLWRLLLRAHHHHH [AP-29] |  |  |  |  |  |  | remaining E6AP mRNA (in % of mock) [1, 3]: 58 ± 8%; remaining E6AP mRNA (in % of mock) [1, 4]: 16 ± 2%; remaining E6AP mRNA (in % of mock) [1, 5]: 11 ± 1% |
| HLFRALLRLLRSLWRLLHRA [AP-9] |  | 53 ± 17% | 38 ± 6% | 31 ± 3% | 22 ± 1% | 36 ± 7% |  |
| HLFRALRRLLRHLWRLLRRA [AP-13] |  | 59 ± 7% |  |  |  |  |  |
| HLFRHLLRLLRHLWRHLLRA [AP-15] |  | 77 ± 39% | 32 ± 5% | 26 + 2% | 22 ± 4% | 43 ± 5% |  |
| HLFRHLLRLLRRLWHLLHRA [AP-14] |  | 56 ± 21% | 41 ± 2% | 41 ± 12% | 19 ± 2% | 39 ± 7% |  |
| RLFPALLRLLRRLWRLLLRA [AP-6] |  | 41 ± 11% | 62 ± 9% | 36 ± 8% | 63 ± 18% | 54 ± 9% |  |
| RLFRALLRLLRRLWRLLRRA [AP-7] |  | 134 ± 19% |  |  |  |  |  |
| RLFRALLRLLRSLWRLLLRA [AP-1] | None of these peptides led to a significant alteration of cell viability |  |  |  |  |  |  |
| RLFRALLRLLRSLWRLLLRAHHHHH [AP-27] | None of these peptides led to a significant alteration of cell viability |  |  |  |  |  |  |
| RLFRALLRLLRSLWRLLLRAHHHHHHHHHH [AP-34] | None of these peptides led to a significant alteration of cell viability |  |  |  |  |  |  |
| RLFRALLRLLRSLWRLLRRAHHHHH [AP-28] |  |  |  |  |  |  | remaining E6AP mRNA (in % of mock) [1, 3]: 105 ± 13%; remaining E6AP mRNA (in % of mock) [1, 4]: 30 ± 9%; remaining E6AP mRNA (in % of mock) [1, 5]: 18 ± 2% |
| RLFRALRRLLRRLWRLLRRA [AP-8] |  | 170 ± 44% |  |  |  |  |  |
